Structures can show the parent of a compound that is named as a salt.
Columns and labels:
[1] = test system: HPV+E6E7 Ras tumor (E6/E7/Ras MOEs cells); experiment: Tumor response to cisplatin/radiation therapy (CRT), HPV positive HNSCC mouse model; format: in vivo, C57Bl/6 mice; conditions: oxamate 15 mg/mouse; for tumor's response to CRT (tumor volume, FIG. 18): DCA 6 mg/mouse, daily i.p. on weekdays from day 11, with CRT
Method: FIG. 7 illustrates the effects of DCA plus oxamate on tumor growth (A) or on survival (B) with HPV+ model of HNSCC in wild-type C57Bl/6 mice. All mice received 3 rounds of cisplatin (0.132 mg/mouse) plus radiation (8 Gy/mouse) treatment (Tx) at weekly intervals starting […] after tumor initiation. Mice receiving DCA (6 mg/mouse) plus oxamate (15 mg/mouse) were treated every weekday, starting with the first chemoradiation treatment by i.p. injection.
FIG. 8 illustrates a comparison of prodrugs to DCA plus oxamate on tumor growth (A) or on survival (B) with HPV+ model of HNSCC in wild-type C57Bl/6 mice. All mice received 3 rounds of CRT [cisplatin (0.132 mg/mouse) plus radiation (8 Gy/mouse) treatment (Tx) at weekly intervals starting 11 days after tumor initiation]. Mice receiving DCA (6 mg/mouse) plus oxamate (2.2 mg/mouse) were treated every weekday starting with the first chemoradiation treatment by i.p. injection. Mice treated with AT-N4-001 or AT-N4-002 prodrugs (7.6 mg/mouse) were treated on the same schedule as mice treated with DCA+oxamate.
FIG. 18. The effects of DCA, oxamate, DCA plus oxamate on the responses of HPV+E6E7 Ras tumor to CRT. One million E6/E7/Ras MOEs cells were injected subcutaneously into the rear leg of wild-type C57Bl/6 mice. After 11 days, a treatment with DCA (6 mg/mouse) and oxamate (15 mg/mouse) were injected daily by i.p. on weekdays for the remainder of the experiment. All mice received three rounds of treatment with CRT (0.132 mg/mouse cisplatin and 8 Gy radiation, weekly starting at day 11). Tumor volume is mm^3.
FIG. 19 depicts the effects of DCA plus oxamate vs the effects of prodrug 1 or prodrug 2 on the responses of HPV+E6E7 Ras tumor to CRT. Tumors were initiated by injecting 0.5×10^6 E6/E7/Ras MOEs cells. After 11 days, a treatment with DCA (6 mg/mouse) plus oxamate (2 mg/mouse), or prodrug 1 (7.6 mg/mouse), or prodrug 2 (7.6 mg/mouse) was initiated daily by i.p. on weekdays. The doses of DCA and oxamate were equal molar equivalents as would be released from the prodrugs. All mice received three rounds of treatment with CRT (0.132 mg/mouse cisplatin and 8 Gy radiation, weekly starting at day 11). Tumor volume is in mm^3.
The effects of various treatments on tumor responses were carried out by examining whether the treatment could improve tumor's response to CRT with a HPV positive HNSCCs mouse model. CRT is a standard treatment for HPV-positive HNSCC in the clinic (46). […] Applicants also used this model to investigate the effects of lactate on CRT-induced immune-mediated cancer clearance (46) and DCA's effect on the tumor's response to CRT (unpublished data). The literature reported dosages of DCA and oxamate were used (6,23,52,53)(41).
To study the effects of the prodrugs on tumor growth in vivo, C57Bl/6 immune-competent mice implanted with E6/E7/Ras MOEs cells were used as described previously (46). All experiments were performed in accordance with institutional and national guidelines and regulations with the protocol approved by the Animal Care and Use Committee at Sanford Research. Briefly, 1×10^6 tumor HPV+HNSCC cells were injected into the right subcutaneous flank of syngeneic male C57Bl/6 mice. Eleven days after tumor initiation, treatment was initiated daily on weekdays by i.p. injection of vehicle, DCA, Oxamate, DCA+oxamate, prodrug 1, or prodrug 2. All mice received three rounds of treatment with cisplatin/radiation therapy (CRT: 0.132 mg/mouse cisplatin and 8 Gy radiation, weekly starting at day 11). Tumor dimensions were measured weekly to monitor growth. Mice with tumors reaching a volume of 3000 mm^3 or becoming substantially emaciated were euthanized.
To study the effects of the new prodrugs on tumor growth in vivo, C57Bl/6 immune-competent mice were used. Tumors were established on the right flank of the leg. After 11 days, treatment was initiated with daily i.p. injection of vehicle, AT-N4-001, or AT-N4-002. […]

E6E7/Ras MTE cells = experiment: Clonogenic growth (colony formation); format: cell-based, mouse; conditions: 5 mM prodrugs, 10 mM DCA, 7 days, vs DMSO
Method: FIG. 4 illustrates prodrugs AT-N4-001 and AT-N4-002 inhibiting cell proliferation and colony growth of E6E7/Ras MTE cells. (A) E6E7/Ras MTE cultures were treated with DMSO (Con), AT-N4-001, or AT-N4-[…] 002 at the indicated concentration for one day. Live cell number was then determined using a trypan blue exclusion assay. (B) E6E7/Ras MTE cells were seeded on 100-mm plate at 500 cells per plate (in triplicate). After one day, cells were treated as indicated and allowed to grow until colonies of untreated controls reached 50 or more cells (7 days). Plates were stained with Coomassie blue to visualize the colonies. (C) Quantification of colonies described in B. Colonies with more than 15 cells were counted.
E6E7/Ras MTE cells are mouse tonsilar epithelial cells that have been transformed by HPV oncogenes E6 and E7 together with activated ras. They form tumors in mice and are a model of human HPV+HNSCC. These cells were treated in culture with either vehicle control (DMSO), AT-N4-001, or AT-N4-002 at concentrations of 1 mM, 2.5 mM and 5 mM for one day. Live cells were counted using a hemocytometer (FIG. 4A). […] The effects of the compounds on clonogenic growth of the cells were also tested. E6/E7/Ras MTE cells were seeded in 100 mm plates in triplicate, and the next day cells were treated with either vehicle control DMSO, 5 mM AT-N4-001, 5 mM AT-N4-002, or 10 mM DCA. DCA was used at a twice the concentration because the prodrugs each carry two molecules of DCA.

E6E7/Ras cells = experiment: Lactate secretion into culture medium, enzyme based assay; format: cell-based, mouse; conditions: 5 mM each, 4 hours
Method: FIG. 5 illustrates the reduction of lactate secretion in cultured cells by prodrugs AT-N4-001 and AT-N4-002. E6E7Ras cells were plated in 100 mm dishes and grown to confluence. The medium was changed to bicarbonate-free DMEM-10% FBS with or without the indicated treatments (5 mM each). Four hours later the medium was collected and lactate was measured using an enzyme based assay from Eton Bioscience. Con indicates the control samples for the DCA and Oxamate samples. DMSO indicates the vehicle only control for the AT-N4-001 and AT-N4-002 prodrug samples.
AT-N4-001 and AT-N4-002 should each release two molecules of DCA and one molecule of oxamate. Both DCA and oxamate are expected to reduce cellular lactate production. Therefore, we examined the changes in lactate after treatment of E6E7/Ras cells with the prodrugs. E6E7/Ras cells were seeded into 100 mm dishes and the next day treated with 5 mM AT-N4-001, 5 mM AT-N4-002, 5 mM DCA plus 5 mM oxamate, or 5 mM DCA alone. Culture medium was collected after 4 hours of treatment and lactate levels were determined (FIG. 5). […] To confirm the effects of these compounds on lactate production, the extra cellular acidification rate (ECAR) was measured using a Seahorse XF24 Extracellular Flux analyzer. Since lactate is transported from cells together with a proton, acidification of the culture medium (ECAR) is an estimate of lactate production and the glycolytic rate of cells. In the experiment shown in FIG. 6A, ECAR measurements were initiated in the absence of glucose. At point A, glucose was added and ECAR measurements continued. […] At point B, additional glucose along with vehicle (control), DCA plus oxamate, or AT-N4-002 was added. […] This is shown by a bar graph in FIG. 6B.

PDK = conditions: reported (26); read-out: Ki value of DCA for PDK; cited from earlier work
[2] = clinical use, reference (24); cited from earlier work
mammalian LDH = conditions: reference (47); read-out: Ki value of oxamate for mammalian LDH; cited from earlier work
[3] = test system: nasopharyngeal carcinoma cells / normal nasopharyngeal epithelial cells; conditions: reference (44); cited from earlier work
[4] = reference (44); cited from earlier work

| SMILES | tumor's response to CRT (tumor volume, FIG. 18) [1] | effectiveness of DCA versus oxamate in improving response to CRT ([1]; FIG. 18, DCA 6 mg/mouse, with CRT) | colony size (FIG. 4B) (E6E7/Ras MTE cells) | lactate production (culture medium, FIG. 5) (E6E7/Ras cells) | Ki (PDK) | clinical safety and tolerability [2] | Ki (mammalian LDH) | nasopharyngeal carcinoma cell proliferation in vitro and in vivo [3] | toxicity to normal nasopharyngeal epithelial cells in vitro [3] | tolerability in mice [4] |
| --- | --- | --- | --- | --- | --- | --- | --- | --- | --- | --- |
| O=C([O-])C(Cl)Cl.[Na+] [DCA, dichloroacetic acid sodium salt, reference compound] | improved tumor's response to CRT | more effective than oxamate | approximately equal reductions in colony size | reduces lactate production but to a lesser extent than the prodrugs | 10 to 250 µM | safe and well tolerated with relatively modest toxicities | – | – | – | – |
| NC(=O)C(=O)O [oxamate, oxamic acid sodium salt] | improved tumor's response to CRT | – | – | – | – | – | 116 µM | significant suppression | minimum toxicity | well tolerated |

Source: patent US9556113B2, “Combination uses of dichloroacetate and oxamate, and their prodrugs, for cancer treatment” (The South Dakota Board of Regents, priority 2014, dated 2017)
